Laboratory results taken from article PMC8072719, “Synthesis and Antiproliferative Activity of Triazoles Based on 2-Azabicycloalkanes” (Materials, 2021).
Like-named read-outs stand apart in the source and are kept apart here.

Key:
BALB/3T3 clone A31 = test: Growth inhibition assay (SRB assay), normal fibroblasts BALB/3T3 clone A31; format: cell-based, mouse; conditions: mean ± SD
Protocol: (§1) Three human cancer cell lines were used to evaluate the antiproliferative activity of the obtained compounds: melanoma cell line Hs294T, pancreatic tumor cell line MIA PaCa-2, and lung tumor cell line NCI-H1581. The normal mouse fibroblasts cell line (BALB/3T3 clone A31) was selected as reference. All these lines were purchased from the ATCC (American Type Culture Collection, Rockville, MD, USA). NCI-H1581 cells were grown in RPMI 1640 with GlutaMax medium (Gibco, Thermo Fisher Scientific, Leicestershire, UK) with 5% fetal bovine serum (FBS; HyClone, GE Healthcare, Logan, UT, USA). Hs294T and BALB/3T3 cells were grown in Dulbecco’s Modified Eagle Medium (DMEM; Gibco, Thermo Fisher Scientific, Leicestershire, UK) supplemented with 2 mM L-glutamine and 10% FBS (HyClone, GE Healthcare, Logan, UT, USA). MIA PaCa-2 cells were grown in DMEM (Gibco, Thermo Fisher Scientific, Leicestershire, UK) supplemented with 2 mM L-glutamine, 2.5% Horse Serum (Gibco, Thermo Fisher Scientific, Leicestershire, UK), and 10% FBS (HyClone, GE Healthcare, Logan, UT, USA). All culture media were supplemented with antibiotics: 100 U/mL penicillin (Polfa Tarchomin SA, Warsaw, Poland) and 100 µg/mL streptomycin (Sigma-Aldrich Chemie GmbH, Steinheim, Germany); cells were grown at 37 °C in a humid atmosphere with 5% CO2.
(§2) Twenty-four hours prior to the addition of the tested compounds, 2000 cells per well of Balb/3T3, MIA PaCa-2, and Hs294T cell lines and 2500 cells of NCI-H1581 cell line were seeded in 384-well plates (Greiner Bio-One, Kremsmünster, Austria) in an appropriate medium. The studied compounds were added to the cells at 8 different concentrations in a series of dilutions from 100 to 0.00001 µg/mL for 72 h. Cisplatin was applied as a reference compound (Teva Pharmaceuticals, Warsaw, Poland). DMSO (Sigma-Aldrich Chemie GmbH, Steinheim, Germany) was used as solvent control. The DMSO concentrations corresponded to the solvent concentrations in the tested compound solutions. Then, 30 µL per well of ice-cold 50% TCA (trichloroacetic acid, Avantor, Gliwice, Poland) was added to the cells. After one hour of incubation at room temperature (RT) cells were washed five times with water and stained with 0.4% SRB (sulforhodamine B, Sigma-Aldrich Chemie GmbH, Steinheim, Germany). Twenty-five microliters per well of 0.4% solution of SRB in 1% acetic acid (Avantor, Gliwice, Poland) was applied. After 0.5 h of incubation at RT, the unbound dye was washed out with 1% acetic acid. The bound dye in each well was dissolved in 70 µl of 10 mM TRIS (Tris base, Sigma-Aldrich, Chemie GmbH, Steinheim, Germany). A microplate reader (BioTek Synergy H4, Swindon, UK) with Gen5 software was used to read the absorbance at 540 nm. The results are presented as mean IC50 values (concentration of the compound that inhibits cell proliferation by 50%) ± standard deviation. Half-maximal inhibitory concentration (IC50) values were calculated using the Prolab-3 system based on Cheburator 0.4 [22]. Each experiment was performed in triplicate, and three independent repetitions were made for each experiment. Raw data and IC50 values were placed in the supplementary materials.

MIA PaCa-2 = test: Growth inhibition assay (SRB assay), pancreatic tumor cell line MIA PaCa-2; format: cell-based, human; conditions: mean ± SD
Protocol: as §1, §2

NCI-H1581 = test: Growth inhibition assay (SRB assay), lung tumor cell line NCI-H1581; format: cell-based, human; conditions: for SI (Selectivity Index): SI = IC50 for normal cell line BALB/3T3 / IC50 for NCI-H1581
Protocol: as §1, §2

Hs294T = test: Growth inhibition assay (SRB assay), melanoma cell line Hs294T; format: cell-based, human; conditions: 72 h, mean ± SD
Protocol: as §1, §2

[1] = Mus musculus, BALB/3T3 clone A31, 72 h, normal cell line, read-out: IC50 BALB3T3
[2] = Mus musculus, BALB/3T3 clone A31, 72 h, supplement, read-out: IC50 BALB3T3 (raw data)
[3] = Homo sapiens, MIA PaCa-2, 72 h, read-out: IC50 MIA PaCa-2
[4] = Homo sapiens, MIA PaCa-2, supplement, 72 h, read-out: IC50 MIA PaCa-2 (raw data)
[5] = Homo sapiens, NCI-H1581, 72 h, 72 h, SRB, mean ± SD, read-out: IC50 NCI-H1581
[6] = Homo sapiens, NCI-H1581, 72 h, supplement, 72 h, SRB, mean ± SD, read-out: IC50 NCI-H1581 (raw data)
[7] = Homo sapiens, Hs 294T, read-out: IC50 Hs294T
[8] = Homo sapiens, Hs 294T, supplement, read-out: IC50 Hs294T (raw data)

IC50 (MIA PaCa-2; [3]) [µM] | IC50 (MIA PaCa-2; [4]) | IC50 (NCI-H1581; [5]) [µM] | IC50 (NCI-H1581; [6]) | IC50 (Hs294T; [7]) [µM] | IC50 (Hs294T; [8]) | Structure (SMILES) | SI (Selectivity Index) (NCI-H1581) | IC50 (BALB/3T3 clone A31; [1]) [µM] | IC50 (BALB/3T3 clone A31; [2]) | further results
84.4 ± 1.04 | 31.5 ± 0.39 µg/mL | 30.8 ± 3.51 | 11.5 ± 1.31 µg/mL | 74.5 ± 14.9 | 27.8 ± 5.58 µg/mL | C[C@@H](c1ccccc1)N1C[C@@H](n2cc(-c3cccc(N)c3)nn2)[C@@H]2CC[C@H]1C2 [Compound 6, 3-(1-((1S,4S,5R)-2-((S)-1-phenylethyl)-2-azabicyclo[3.2.1]octan-4-yl)-1H-1,2,3-triazol-4-yl)aniline] | 2.5 | 77.1 ± 1.1 | 28.8 ± 0.41 µg/mL | 
77 ± 1.98 | 28.7 ± 0.74 µg/mL | 7.39 ± 1.15 | 2.76 ± 0.43 µg/mL | 65.9 ± 8.3 | 24.6 ± 3.1 µg/mL | C[C@@H](c1ccccc1)N1C[C@H](n2cc(-c3cccc(N)c3)nn2)[C@@H]2CC[C@H]1C2 [Compound 7, 3-(1-((1S,4R,5R)-2-((S)-1-phenylethyl)-2-azabicyclo[3.2.1]octan-4-yl)-1H-1,2,3-triazol-4-yl)aniline] | 7 | 52.7 ± 6.16 | 19.7 ± 2.3 µg/mL | 
79.12 ± 0.5 | 31.85 ± 0.2 µg/mL | 15.48 ± 0.12 | 6.23 ± 0.05 µg/mL | 73.8 ± 10.1 | 29.7 ± 4.07 µg/mL | C[C@@H](c1ccccc1)N1C[C@@H](n2cc(COCc3ccccc3)nn2)[C@@H]2CC[C@H]1C2 [Compound 8, (1S,4S,5R)-4-(4-((benzyloxy)methyl)-1H-1,2,3-triazol-1-yl)-2-((S)-1-phenylethyl)-2-azabicyclo[3.2.1]octane] | 4 | 61.5 ± 3.28 | 24.7 ± 1.32 µg/mL | 
76.5 ± 4.37 | 30.8 ± 1.76 µg/mL | 8.52 ± 1.39 | 3.43 ± 0.56 µg/mL | 70.9 ± 5.86 | 28.5 ± 2.36 µg/mL | C[C@@H](c1ccccc1)N1C[C@H](n2cc(COCc3ccccc3)nn2)[C@@H]2CC[C@H]1C2 [Compound 9, (1S,4R,5R)-4-(4-((benzyloxy)methyl)-1H-1,2,3-triazol-1-yl)-2-((S)-1-phenylethyl)-2-azabicyclo[3.2.1]octane] | 6 | 50 ± 3.25 | 20.1 ± 1.31 µg/mL | 
40.2 ± 1.6 | 24.3 ± 0.97 µg/mL | 4.2 ± 0.36 | 2.54 ± 0.22 µg/mL | 10.3 ± 3.39 | 6.26 ± 2.05 µg/mL | C[C@@H](c1ccccc1)N1C[C@@H](n2cc(CCCc3cn([C@@H]4CN([C@@H](C)c5ccccc5)[C@H]5CC[C@@H]4C5)nn3)nn2)[C@@H]2CC[C@H]1C2 [Compound 10, 1,3-Bis-(1-((1S,4S,5R)-2-((S)-1-phenylethyl)-2-azabicyclo[3.2.1]octan-4-yl)-1H-1,2,3-triazol-4-yl) propane] | 3 | 11.8 ± 5.03 | 7.17 ± 3.04 µg/mL | 
51.5 ± 1.6 | 31.2 ± 0.97 µg/mL | 6 ± 0.86 | 3.64 ± 0.52 µg/mL | 32.4 ± 7.83 | 19.7 ± 4.75 µg/mL | C[C@@H](c1ccccc1)N1C[C@@H](n2cc(COCc3cn([C@@H]4CN([C@@H](C)c5ccccc5)[C@H]5CC[C@@H]4C5)nn3)nn2)[C@@H]2CC[C@H]1C2 [Compound 12, (1S,1′S,4S,4′S,5R,5′R)-4,4′-(4,4′-(oxybis(methylene))bis(1H-1,2,3-triazole-4,1-diyl))bis(2-((S)-1-phenylethyl)-2-azabicyclo[3.2.1]octane)] | 7 | 44.4 ± 7.5 | 26.9 ± 4.55 µg/mL | 

Further lines, the molecule ahead of its results:

Structure (SMILES) | IC50 (MIA PaCa-2; [3]) [µM] | IC50 (MIA PaCa-2; [4]) | IC50 (NCI-H1581; [5]) [µM] | IC50 (NCI-H1581; [6]) | IC50 (Hs294T; [7]) [µM] | IC50 (Hs294T; [8]) | SI (Selectivity Index) (NCI-H1581) | IC50 (BALB/3T3 clone A31; [1]) [µM] | IC50 (BALB/3T3 clone A31; [2]) | further results
N.N.[Cl][Pt][Cl] [Cisplatin, reference compound] |  |  |  |  |  |  | 0.3 |  |  | IC50 (BALB/3T3 clone A31; 72 h, normal cell line, read-out: IC50 BALB3T3): 1.83 ± 0.7 µM; IC50 BALB3T3 (raw data) (BALB/3T3 clone A31; supplement, 72 h): 0.55 ± 0.21 µg/mL; IC50 (MIA PaCa-2; 72 h, read-out: IC50 MIA PaCa-2): 12.6 ± 3.13 µM; IC50 MIA PaCa-2 (raw data) (MIA PaCa-2; supplement, 72 h): 3.79 ± 0.94 µg/mL; IC50 (NCI-H1581; 72 h, SRB, mean ± SD, listed as cisplatin, read-out: IC50 NCI-H1581): 7.3 µM; IC50 (NCI-H1581; 72 h, SRB, mean ± SD, read-out: IC50 NCI-H1581): 7.27 ± 2.83 µM; IC50 NCI-H1581 (raw data) (NCI-H1581; supplement, 72 h, SRB, mean ± SD): 2.18 ± 0.85 µg/mL; IC50 (Hs294T; read-out: IC50 Hs294T): 1.3 ± 0.5 µM; IC50 Hs294T (raw data) (Hs294T; supplement): 0.39 ± 0.15 µg/mL
C[C@@H](c1ccccc1)N1C[C@@H](n2cc(CO)nn2)[C@@H]2CC[C@H]1C2 [Compound 1, (1-((1S,4S,5R)-2-((S)-1-phenylethyl)-2-azabicyclo[3.2.1]octan-4-yl)-1H-1,2,3-triazol-4-yl)methanol] | > 100 | > 100 µM | > 100 | > 100 µM | > 100 | > 100 µM |  | > 100 | > 100 µM | IC50 (BALB/3T3 clone A31; Mus musculus, BALB/3T3 clone A31, 72 h, supplement, read-out: IC50 BALB3T3 (non-rounded data)): > 100 µM; IC50 (MIA PaCa-2; Homo sapiens, MIA PaCa-2, supplement, 72 h, read-out: IC50 MIA PaCa-2 (non-rounded data)): > 100 µM; IC50 (NCI-H1581; Homo sapiens, NCI-H1581, 72 h, supplement, 72 h, SRB, mean ± SD, read-out: IC50 NCI-H1581 (non-rounded data)): > 100 µM; IC50 (Hs294T; Homo sapiens, Hs 294T, supplement, read-out: IC50 Hs294T (non-rounded data)): > 100 µM
C[C@@H](c1ccccc1)N1C[C@H](n2cc(CO)nn2)[C@@H]2CC[C@H]1C2 [Compound 2, (1-((1S,4R,5R)-2-((S)-1-phenylethyl)-2-azabicyclo[3.2.1]octan-4-yl)-1H-1,2,3-triazol-4-yl)methanol] | > 100 | 71.4 ± 11.8 µg/mL | 72.3 ± 34 | 22.6 ± 10.6 µg/mL | > 100 | 46.1 ± 2.17 µg/mL |  | > 100 | 56.1 ± 8.24 µg/mL | 
C[C@@H](c1ccccc1)N1C[C@@H](n2cc(CN)nn2)[C@@H]2CC[C@H]1C2 [Compound 3, (1-((1S,4S,5R)-2-((S)-1-phenylethyl)-2-azabicyclo[3.2.1]octan-4-yl)-1H-1,2,3-triazol-4-yl)methanamine] | 99.9 ± 4.46 | 31.1 ± 1.39 µg/mL | 11.3 ± 1.25 | 3.51 ± 0.39 µg/mL | 88.5 ± 9.41 | 27.6 ± 2.93 µg/mL | 8 | 94.4 ± 1.89 | 29.4 ± 0.59 µg/mL | 
C=CC(=O)OCc1cn([C@@H]2CN([C@@H](C)c3ccccc3)[C@H]3CC[C@@H]2C3)nn1 [Compound 4, (1-((1S,4S,5R)-2-((S)-1-phenylethyl)-2-azabicyclo[3.2.1]octan-4-yl)-1H-1,2,3-triazol-4-yl)methyl acrylate] | 87.7 ± 1.66 | 32.1 ± 0.61 µg/mL | 7.91 ± 1.2 | 2.9 ± 0.44 µg/mL | 9.52 ± 2.51 | 3.49 ± 0.92 µg/mL | 0.2 | 1.75 ± 0.76 | 0.64 ± 0.28 µg/mL | 
C=CC(=O)OCc1cn([C@H]2CN([C@@H](C)c3ccccc3)[C@H]3CC[C@@H]2C3)nn1 [Compound 5, (1-((1S,4R,5R)-2-((S)-1-phenylethyl)-2-azabicyclo[3.2.1]octan-4-yl)-1H-1,2,3-triazol-4-yl)methyl acrylate] | 86.31 ± 0.35 | 31.63 ± 0.13 µg/mL | 18.8 ± 4.45 | 6.88 ± 1.63 µg/mL | 72.8 ± 9.71 | 26.7 ± 3.56 µg/mL | 1.5 | 28.5 ± 22.7 | 10.5 ± 8.31 µg/mL | 
